# Experimental data reported in ChEMBL document CHEMBL4480423, “Mindapyrroles A-C, Pyoluteorin Analogues from a Shipworm-Associated Bacterium” (J Nat Prod, 2019).
# How the values were obtained:
# Enterococcus faecium = experiment: Antibacterial activity against Enterococcus faecium ATCC […] after 24 hrs by resazurin dye based fluorescence assay; assay type: functional
# [1] = test system: Staphylococcus epidermidis; experiment: Antibacterial activity against Staphylococcus epidermidis ATCC 35984 after 24 hrs by resazurin dye based fluorescence assay; assay type: functional; conditions: ATCC 35984, 24 h
# Staphylococcus aureus [2] = experiment: Antibacterial activity against Staphylococcus aureus ATCC 6538 after 24 hrs by resazurin dye based fluorescence assay; assay type: functional; conditions: ATCC 6538, 24 h
# Bacillus subtilis = experiment: Antibacterial activity against Bacillus subtilis ATCC 6051 after 24 hrs by resazurin dye based fluorescence assay; assay type: functional; conditions: ATCC 6051, 24 h
# Staphylococcus aureus [3] = experiment: Antibacterial activity against methicillin-resistant Staphylococcus aureus ATCC 43300 after 24 hrs by resazurin dye based fluorescence assay; assay type: functional; conditions: ATCC 43300, 24 h
# MDCK = experiment: Cytotoxicity against MDCK cells assessed as reduction in cell viability after 72 hrs by MTT assay; assay type: cell-based; conditions: Canis lupus familiaris
# Pseudomonas aeruginosa = experiment: Antibacterial activity against Pseudomonas aeruginosa ATCC 15442 after 24 hrs by resazurin dye based fluorescence assay; assay type: functional; conditions: ATCC 15442, 24 h
SMILES,MIC (Enterococcus faecium),MIC [1],MIC (Staphylococcus aureus [2]),MIC (Bacillus subtilis),MIC (Staphylococcus aureus [3]),IC50 (MDCK),MIC (Pseudomonas aeruginosa)
Cc1onc(-c2ccccc2)c1C(=O)N[C@@H]1C(=O)N2[C@@H]1SC(C)(C)[C@@H]2C(=O)O [OXACILLIN],> 32 µg/mL,2 µg/mL,0.13 µg/mL,1 µg/mL,8 µg/mL,–,–
O=C(c1cc(Cl)c(Cl)[nH]1)c1c(O)ccc(Cc2cc(C(c3csc(-c4ccccc4O)n3)c3ccc(O)c(C(=O)c4cc(Cl)c(Cl)[nH]4)c3O)c(O)c(C(=O)c3cc(Cl)c(Cl)[nH]3)c2O)c1O (stereo not given),> 32 µg/mL,2 µg/mL,4 µg/mL,8 µg/mL,8 µg/mL,28 µM,> 32 µg/mL
O=C(c1cc(Cl)c(Cl)[nH]1)c1c(O)ccc(C(c2csc(-c3ccccc3O)n2)c2ccc(O)c(C(=O)c3cc(Cl)c(Cl)[nH]3)c2O)c1O,8 µg/mL,2 µg/mL,4 µg/mL,4 µg/mL,4 µg/mL,92 µM,8 µg/mL
O=C(N[C@H](CO)[C@H](O)c1ccc([N+](=O)[O-])cc1)C(Cl)Cl [CHLORAMPHENICOL],8 µg/mL,–,–,–,–,–,–
CCn1cc(C(=O)O)c(=O)c2ccc(C)nc21 [NALIDIXIC ACID],–,–,–,–,–,–,4 µg/mL
O=C(c1cc(Cl)c(Cl)[nH]1)c1c(O)ccc(Cc2ccc(O)c(C(=O)c3cc(Cl)c(Cl)[nH]3)c2O)c1O,32 µg/mL,32 µg/mL,32 µg/mL,32 µg/mL,> 32 µg/mL,44 µM,> 32 µg/mL
O=C(c1cc(Cl)c(Cl)[nH]1)c1c(O)cccc1O [PYOLUTEORIN],8 µg/mL,4 µg/mL,4 µg/mL,8 µg/mL,8 µg/mL,4.8 µM,16 µg/mL
